Patent US20020193564A1, “Oligomeric chaperone proteins” (priority 1999, published 2002)

Tests used:
[1] = target: T1, heat- and dithiothreitol-denatured mtMDH (Sus scrofa, UniProt P00346); test: In vitro refolding of denatured mtMDH; format: biochemical, pig; details: 25° C., chaperone alone, FIG. 7b
T1 construct: Boehringer-Mannheim); purchased Boehringer-Mannheim; host or cells: pig heart
T1 sequence (P00346 25-338): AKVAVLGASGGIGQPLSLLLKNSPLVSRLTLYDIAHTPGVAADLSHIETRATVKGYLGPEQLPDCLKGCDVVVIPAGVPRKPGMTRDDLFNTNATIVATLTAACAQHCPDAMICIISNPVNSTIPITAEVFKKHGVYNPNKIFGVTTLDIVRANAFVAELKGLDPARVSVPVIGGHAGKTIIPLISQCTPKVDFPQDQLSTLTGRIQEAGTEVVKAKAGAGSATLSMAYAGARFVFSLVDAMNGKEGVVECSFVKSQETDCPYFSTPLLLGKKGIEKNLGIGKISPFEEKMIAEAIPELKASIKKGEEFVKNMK
Procedure: In vitro Refolding Experiments.
Refolding assays of pig heart mitochondrial malate dehydrogenase (mtMDH; Boehringer-Mannheim) and aggregation protection were carried out essentially as described (Peres Ben-Zvi, A. P., Chatellier, J., Fersht, A. R. & Goloubinoff, P. (1998) Proc. Natl. Acad. Sci. U.S.A. 95, 15275-15280). The concentrations of MC7 used were between 8-16 μM (reporter to protomer).

[2] = system: E. coli SV2 groEL44; test: In vivo complementation of ts groEL44 at 43° C.; format: cell-based; details: plasmids pJC, relative to growth at 30° C.
Procedure: In vivo Complementation Experiments.
Complementation experiments were performed by transforming electro-competent SV2 or SV6 cells with the pJC series of expression vectors and plating an aliquot of the transformation reactions directly at 43° C. The percentage of viable cells relative to the growth at 30° C. was determined. A representative number of clones which grew at 43° C. were incubated in absence of any selective markers at permissive temperature. After prolonged growth the loss of the pJC plasmids and the ts phenotype were verified. Each experiment was performed in duplicate. Plasmids carrying no groE genes or encoding the GroE proteins were used as negative or positive controls, respectively.

[3] = system: AI90 (ΔgroEL::kan^R) [pBADEL] E. coli strain; test: Plating ability of AI90 on GroEL depletion at 37° C.; format: cell-based
Procedure: AI90 (ΔgroEL::kan^R) [pBAD-EL] cells were transformed with the pJC vector series. Transformants were selected at 37° C. on LB supplemented with 50 μg.ml^−1 of kanamycin, 120 μg.mL^−1 of ampicillin, 25 μg.mL^−1 of chloramphenicol and 0.2% L(+)arabinose. Depletion of GroEL protein was analysed at 37° C. by plating the same quantity of AI90 [PBAD-EL+pJC vectors] cells on LB plates containing 1% D(+)glucose or various amount of arabinose.
Each experiment was performed in triplicate. Plasmids carrying no groE genes or encoding the GroE proteins were used as negative or positive controls, respectively.

[4] = system: bacteriophage λ; test: Growth of bacteriophage λ in transformed groEL strains; format: cell-based, bacteriophage λ (b2cI) in E. coli
Source text: (§1) The E. Coli strains used in this study were: C41(DE3), a mutant of BL21(DE3) capable of expressing toxic genes (Miroux, B. & Walker, J. E. (1996) J. Mol. Biol. 260, 289-298); SV2 (B178groEL44), SV3 (B178groEL59) and SV6 (B178groEL673): isogenic strains carrying temperature-sensitive alleles of groEL; SV1(=B178) (Georgopoulos, C., Hendrix, R. W., Casjens, S. R. & Kaiser, A. D. (1973) J. Mol. Biol. 76, 45-60), A190 (ΔgroEL::kan^R) [pBAD-EL] (Ivic, A., Olden, D., Wallington, E. J. & Lund, P. A. (1997) Gene 194, 1-8), and TG1 (Gibson, T. J. (1984) Ph.D. thesis, University of Cambridge, U.K). Bacteriophage λb2cI (Zeilstra-Ryalls, J., Fayet, O., Baird, L. & Georgopoulos, C. (1993) J. Bacteriol. 175, 1134-1143) was used according to standard methods (Arber, W., Enquist, L., Hohn, B., Murray, N. E. & Murray, K. (1983) in Lambda II., ed. R. W. Hendrix, J. W. r., F. W. Stahl and R. A. Weisberg (Cold Spring Harbor Laboratory, Cold Spring Harbor, N.Y.), pp. 433-466); plaque formation was assayed at 30° C. T4D0, a derivative of bacteriophage T4 (Zeilstra-Ryalls, J., Fayet, O., Baird, L. & Georgopoulos, C. (1993) J. Bacteriol. 175, 1134-1143), was used according to standard methods (Karam, J. D. (1994) Molecular biology of bacteriophage T4. (American Society for Microbiology, Washington, D.C.)); plaque formation was assayed at 37° C.

[5] = system: bacteriophage T4; test: Growth of bacteriophage T4 in transformed groEL strains; format: cell-based, bacteriophage T4 (T4D0) in E. coli; design: key to Growth of bacteriophage T4, SV1 (groEL^+) / Growth of bacteriophage T4, SV2 groEL44 / Growth of bacteriophage T4, SV3 GroEL59 / Growth of bacteriophage T4, SV6 groEL673: +++: normal plaque-forming ability relative to wild-type groEL^+ strain, in terms of both number and size; ++: 5-fold fewer plaques relative to wild-type groEL^+ strain, or both; 10-fold fewer plaques, or plaque size reduced relative to wild-type groEL^+ strain, or both; +/−: 10^2-fold fewer plaques and plaque size reduced relative to wild-type groEL^+ strain; no visible plaques (<10^−4); details: 37° C.
Source text: as §1

For “GroEL(1-548): key molecular chaperone in Escherichia coli, 14 subunits of 57.5 kD in two seven membered rings”, the “rate of refolding denatured mtMDH” value [1] was 0.04 nM/min, the “Relative colony forming ability, SV2 groEL44” value [2] was 1 and the “Plating ability, 0.00 % L(+)arabinose” value ([3]; 0.00% arabinose) was “+++ (growth identical to that in presence of 0.2% L(+)arabinose (100%), in terms of both number and size)”. The “Plating ability, 0.01 % L(+)arabinose” value ([3]; 0.01% arabinose) was “+++ (growth identical to that in presence of 0.2% L(+)arabinose (100%), in terms of both number and size)”, the “Plating ability, 0.10 % L(+)arabinose” value ([3]; 0.10% arabinose) was “+++ (growth identical to that in presence of 0.2% L(+)arabinose (100%), in terms of both number and size)” and the “Plating ability, 0.15 % L(+)arabinose” value ([3]; 0.15% arabinose) was “+++ (growth identical to that in presence of 0.2% L(+)arabinose (100%), in terms of both number and size)”. The “Growth of bacteriophage λ, SV1 (groEL^+)” value ([4]; 30° C., SV1) was “− (no visible plaques (<10^−4))”, the “Growth of bacteriophage λ, SV2 groEL44” value ([4]; 30° C., SV2) was “+ (10-fold fewer plaques, or plaque size reduced relative to wild-type groEL^+ strain, or both)” and the “Growth of bacteriophage λ, SV3 GroEL59” value ([4]; 30° C., SV3) was “++ (5-fold fewer plaques relative to wild-type groEL^+ strain, or both)”. The “Growth of bacteriophage λ, SV6 groEL673” value ([4]; 30° C., SV6) was “+/− (10^2-fold fewer plaques and plaque size reduced relative to wild-type groEL^+ strain)”, the “Complementation of groEL mutant strains for bacteriophage λ growth” value ([4]; 30° C., groEL mutant strains) was “weak complementation” and the “Effect of over-expression on λ growth / plaque counts” value ([4]; SV1 (groE^+)) was “suffices to inhibit λ growth”. The “Growth of bacteriophage T4, SV1 (groEL^+)” value ([5]; SV1) was “+++”, the “Growth of bacteriophage T4, SV2 groEL44” value ([5]; SV2) was “+++” and the “Growth of bacteriophage T4, SV3 GroEL59” value ([5]; SV3) was “+++”. For the same substance, the “Growth of bacteriophage T4, SV6 groEL673” value ([5]; SV6) was “+++”.
